Measured values from patent US20240383875A1, “Benzimidazole Pyridine Derivatives” (Hoffmann-La Roche Inc., priority 2022, published 2024).

Legend:
Type in all cases: biochemical
[1] = biological target: SIK1 (Homo sapiens, UniProt P57059); assay: Enzymatic activity assay SIK1, RapidFire mass spectrometry (phosphorylation of CHK-peptide); settings: RapidFire MS, inhibition of SIK1; read-out: SIK1 RF IC50
Description: (§1) Assay description SIK1-3, RapidFire:
(§2) In the presence of SIK2 (resp. SIK1 or SIK3) and ATP the CHK-peptide ([…] with C-terminal arginine amide modification) were phosphorylated at one of the four feasible serine's. Only one phosphorylation is observed under the assay conditions. 60 nl of each compound dilution series (12 point; dilution factor 3, generally 30 μM to 170 pM) in DMSO were transferred by acoustic dispensing to the assay plate and 30 min pre-incubated (ambient temperature) after the addition of 5 μl SIK1 (5 nM) resp. 5 μl SIK2 (0.5 nM) or 7 μl SIK3 (1.5 nM) in assay-buffer (12.5 mM HEPES (pH 7.0), 10 mM magnesium acetate, 0.005% BSA). 10 μM CHK-peptide solution and 5 μl 100 μM ATP for SIK1 & SIK2 resp. 3 μl for SIK3 in assay-buffer were added and incubated ambient for 45 min. 40 μl 0.125% formic acid in water were added to quench the reaction. RapidFire (RF) Mass Spectrometry was utilized for data generation as described below. The multiple charged species (3-5 charges) for the phosphorylated and non-phosphorylated form measured by MRM (Multiple Reaction Monitoring; API5000 or 6500+) or EIC (Extracted Ion Current; QToF) were summed up and the ratio calculated (sum phosphorylated species/sum all species) for data evaluation. Normalization was performed by Genedata software based on the non-inhibition control DMSO and the commercially available SIK inhibitor @ 1 μM YKL-05-099 (CAS number 1936529-65-5). The results of the assay are expressed in half-maximal inhibitory concentrations (IC50s) and are summarized below in Table 1.
(§3) Samples were aspirated by vacuum for max. 600 ms and loaded to C4-cartridge (Agilent; #G9203A) for 3000 ms@1.5 ml/min with 0.1% formic acid in water. Afterwards samples were transferred to the APT5000 (APT6500+) or QToF mass spectrometer for 4000 ms@1.25 ml/min with 90% acetonitrile; 10% water; 0.007% TFA; 0.093 formic acid. The cartridge was reconditioned for additional 500 ms with 0.1% formic acid in water
(§4) All MS analyses using the following MS-setup in MRM mode: Electrospray positive; Ion Spray Voltage: 4000V; Temperature: 550° C.; Collision Gas: 5; Curtain Gas: 15; Gas1: 40; Gas 2: 42; EP: 10
(§5) MS-Setup Agilent QToF 6545
(§6) All MS analyses using the following MS-setup in Mode MS: Dual AJS Electrospray positive; VCap: 3000V; Drying & Sheath gas: 340° C.@81/min; Nebulizer: 60 psig; Nozzle Voltage: 2000V; Fragmentor: 130V; Skimmer: 35V; Oct1 RF Vpp: 700V; Ref masses on@5spectra/s

[2] = biological target: SIK2 (Homo sapiens, UniProt Q9H0K1); assay: Enzymatic activity assay SIK2, RapidFire mass spectrometry (phosphorylation of CHK-peptide); settings: RapidFire MS, inhibition of SIK2; read-out: SIK2 RF IC50
Description: as §1
as §2, with “Only one phosphorylation is observed under the assay conditions. 60 nl of each compound dilution series (12 point; dilution factor 3, generally 30 μM to 170 pM) in DMSO were transferred by acoustic dispensing to the assay plate and 30 min pre-incubated (ambient temperature) after the addition of 5 μl SIK1 (5 nM) resp.” left out, “1936529-65-5).” for “1936529-65-5). The results of the assay are expressed in half-maximal inhibitory concentrations (IC50s) and are summarized below in Table 1.”
as §3, §4, §5, §6

[3] = biological target: SIK3 (Homo sapiens, UniProt Q9Y2K2); assay: Enzymatic activity assay SIK3, RapidFire mass spectrometry (phosphorylation of CHK-peptide); settings: RapidFire MS, inhibition of SIK3; read-out: SIK3 RF IC50
Description: as §1, §2, §3, §4, §5, §6

SIK1, sequence (P57059 whole entry): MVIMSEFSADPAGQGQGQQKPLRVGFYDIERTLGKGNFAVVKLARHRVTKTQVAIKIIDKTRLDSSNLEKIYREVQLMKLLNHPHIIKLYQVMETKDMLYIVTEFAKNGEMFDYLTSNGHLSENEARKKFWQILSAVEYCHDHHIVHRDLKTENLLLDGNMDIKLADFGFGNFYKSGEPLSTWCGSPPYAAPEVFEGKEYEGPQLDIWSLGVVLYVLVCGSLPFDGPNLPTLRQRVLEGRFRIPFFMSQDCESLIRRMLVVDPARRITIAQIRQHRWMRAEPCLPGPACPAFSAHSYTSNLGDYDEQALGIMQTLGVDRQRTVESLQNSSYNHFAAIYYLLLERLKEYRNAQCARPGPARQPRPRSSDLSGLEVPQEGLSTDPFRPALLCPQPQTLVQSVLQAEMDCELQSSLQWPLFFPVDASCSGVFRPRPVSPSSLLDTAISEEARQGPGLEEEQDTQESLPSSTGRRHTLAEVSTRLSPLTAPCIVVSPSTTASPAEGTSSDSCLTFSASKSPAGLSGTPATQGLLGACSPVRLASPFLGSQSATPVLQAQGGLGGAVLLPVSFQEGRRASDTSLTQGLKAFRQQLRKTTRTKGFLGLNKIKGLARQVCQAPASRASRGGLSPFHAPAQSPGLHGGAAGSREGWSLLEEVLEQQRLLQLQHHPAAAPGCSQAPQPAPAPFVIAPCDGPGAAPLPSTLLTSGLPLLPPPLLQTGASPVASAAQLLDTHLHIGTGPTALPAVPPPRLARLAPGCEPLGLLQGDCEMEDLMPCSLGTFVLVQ
SIK2, sequence (Q9H0K1 whole entry): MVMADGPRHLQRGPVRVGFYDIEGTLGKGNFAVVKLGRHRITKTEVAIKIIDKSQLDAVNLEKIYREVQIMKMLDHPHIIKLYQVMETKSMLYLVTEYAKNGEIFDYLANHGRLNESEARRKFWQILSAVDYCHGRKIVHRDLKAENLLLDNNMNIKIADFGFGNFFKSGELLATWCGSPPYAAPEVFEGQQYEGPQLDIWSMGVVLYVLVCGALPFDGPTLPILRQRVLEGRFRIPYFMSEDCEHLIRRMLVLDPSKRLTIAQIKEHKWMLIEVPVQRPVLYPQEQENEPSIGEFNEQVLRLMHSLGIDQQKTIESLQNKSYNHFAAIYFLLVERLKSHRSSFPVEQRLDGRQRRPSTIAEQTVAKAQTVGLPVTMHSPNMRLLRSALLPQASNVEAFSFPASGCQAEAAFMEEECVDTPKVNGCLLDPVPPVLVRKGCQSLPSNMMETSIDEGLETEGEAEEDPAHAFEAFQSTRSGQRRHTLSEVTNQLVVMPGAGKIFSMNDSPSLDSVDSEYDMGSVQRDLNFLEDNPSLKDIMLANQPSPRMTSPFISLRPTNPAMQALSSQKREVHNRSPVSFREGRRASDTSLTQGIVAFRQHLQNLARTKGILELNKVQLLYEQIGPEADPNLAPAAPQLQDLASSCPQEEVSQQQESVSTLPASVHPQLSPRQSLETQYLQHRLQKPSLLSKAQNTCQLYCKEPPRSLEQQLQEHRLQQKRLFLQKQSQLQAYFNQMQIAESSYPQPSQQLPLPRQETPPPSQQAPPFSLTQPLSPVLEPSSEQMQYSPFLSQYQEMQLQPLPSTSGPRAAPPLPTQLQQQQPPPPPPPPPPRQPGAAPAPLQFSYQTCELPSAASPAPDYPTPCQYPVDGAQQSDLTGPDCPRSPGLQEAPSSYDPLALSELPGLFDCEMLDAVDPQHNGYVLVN
SIK3, sequence (Q9Y2K2 whole entry): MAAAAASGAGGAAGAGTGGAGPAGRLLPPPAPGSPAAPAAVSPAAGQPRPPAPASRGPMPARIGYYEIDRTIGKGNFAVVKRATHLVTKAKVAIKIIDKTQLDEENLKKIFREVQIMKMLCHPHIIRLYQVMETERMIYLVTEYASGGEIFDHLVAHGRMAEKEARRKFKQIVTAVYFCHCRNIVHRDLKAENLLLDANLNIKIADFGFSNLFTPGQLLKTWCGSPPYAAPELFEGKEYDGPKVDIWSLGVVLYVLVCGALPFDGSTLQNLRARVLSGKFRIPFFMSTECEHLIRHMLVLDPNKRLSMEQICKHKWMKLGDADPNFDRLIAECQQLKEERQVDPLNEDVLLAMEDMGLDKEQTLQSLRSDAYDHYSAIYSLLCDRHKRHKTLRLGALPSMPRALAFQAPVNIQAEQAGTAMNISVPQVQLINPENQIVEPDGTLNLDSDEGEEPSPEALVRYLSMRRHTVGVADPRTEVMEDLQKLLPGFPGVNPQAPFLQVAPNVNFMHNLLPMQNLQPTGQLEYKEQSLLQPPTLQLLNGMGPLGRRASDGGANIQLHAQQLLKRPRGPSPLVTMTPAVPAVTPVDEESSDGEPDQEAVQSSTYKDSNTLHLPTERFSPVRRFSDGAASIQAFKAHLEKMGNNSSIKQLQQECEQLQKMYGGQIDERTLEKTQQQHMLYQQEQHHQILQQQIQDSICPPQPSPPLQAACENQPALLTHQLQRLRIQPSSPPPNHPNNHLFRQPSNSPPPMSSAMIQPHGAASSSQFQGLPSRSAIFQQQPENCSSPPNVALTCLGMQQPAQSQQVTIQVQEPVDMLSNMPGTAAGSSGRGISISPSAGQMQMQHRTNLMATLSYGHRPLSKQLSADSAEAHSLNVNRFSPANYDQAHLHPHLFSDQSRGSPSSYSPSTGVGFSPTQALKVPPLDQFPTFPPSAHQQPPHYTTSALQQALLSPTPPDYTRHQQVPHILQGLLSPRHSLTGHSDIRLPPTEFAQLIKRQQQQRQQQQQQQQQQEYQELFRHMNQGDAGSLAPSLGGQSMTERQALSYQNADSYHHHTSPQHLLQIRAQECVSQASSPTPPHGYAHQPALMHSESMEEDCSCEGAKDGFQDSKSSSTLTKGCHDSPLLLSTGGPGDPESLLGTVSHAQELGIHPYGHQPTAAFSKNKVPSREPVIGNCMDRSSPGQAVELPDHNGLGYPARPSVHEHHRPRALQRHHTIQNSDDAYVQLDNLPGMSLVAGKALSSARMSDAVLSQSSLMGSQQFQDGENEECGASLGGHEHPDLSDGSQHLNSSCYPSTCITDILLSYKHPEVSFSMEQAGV

Row | IC50 [1] [nM] | IC50 [2] [nM] | IC50 [3] [nM] | Structure (SMILES)
1 | 17 | 0.3 | 0.3 | Cc1ccc(Nc2ccc3c(c2)ncn3-c2ccc(C(C)O)c(-c3nnn(CC(F)(F)F)c3C)n2)nn1 (stereo not drawn) [Example 311, 1-[6-[5-[(6-methylpyridazin-3-yl)amino]benzimidazol-1-yl]-2-[5-methyl-1-(2,2,2-trifluoroethyl)triazol-4-yl]-3-pyridyl]ethanol]
2 | > 30000 | 1390 | 329 | Cc1ccc(Nc2ccc3c(c2)ncn3-c2nc(-n3ccc(C#N)n3)c(C(C)O)cc2Cl)nn1 (stereo not drawn) [Example 239, 1-[5-Chloro-3-(1-hydroxyethyl)-6-[5-[(6-methylpyridazin-3-yl)amino]benzimidazol-1-yl]-2-pyridyl]pyrazole-3-carbonitrile]
3 | 13400 | 6080 | 7470 | COc1cc2ncn(-c3ccc([C@H](C)O)c(-c4ccccc4C(N)=O)n3)c2cc1OC [Example 35, (S)-2-(6-(5,6-Dimethoxy-1H-benzo[d]imidazol-1-yl)-3-(l-hydroxyethyl)pyridin-2-yl)benzamide]
4 | 2210 | 1310 | 307 | Cc1ccc(Nc2ccc3ncn(-c4ccc(C(C)O)c(N5CCC(C)(C#N)C5)n4)c3c2)nn1 (stereo not drawn) [Example 120, 1-[3-(1-Hydroxyethyl)-6-[6-[(6-methylpyridazin-3-yl)amino]benzimidazol-1-yl]-2-pyridyl]-3-methyl-pyrrolidine-3-carbonitrile]
5 | 103 | 0.7 | 1.3 | Cc1ccc(Nc2ccc3c(c2)ncn3-c2ccc(C(C)O)c(-c3cn(CC(F)(F)F)nc3C)n2)nn1 (stereo not drawn) [Example 143, 1-[6-[5-[(6-Methylpyridazin-3-yl)amino]benzimidazol-1-yl]-2-[3-methyl-1-(2,2,2-trifluoroethyl)pyrazol-4-yl]-3-pyridyl]ethanol]
6 | 14400 | 520 | 55.4 | COc1c(O)cccc1-c1nc(-n2cnc3cc(Nc4ccc(C)nn4)ccc32)ccc1C(C)O (stereo not drawn) [Example 203, 3-[3-(1-Hydroxyethyl)-6-[5-[(6-methylpyridazin-3-yl)amino]benzimidazol-1-yl]-2-pyridyl]-2-methoxy-phenol; formic acid]
7 | 353 | 192 | 727 | CCC(O)c1ccc(-n2cnc3cc(OC)c(OC)cc32)nc1-c1cccc(Cl)c1 (stereo not drawn) [Example 24, 1-(2-(3-Chlorophenyl)-6-(5,6-dimethoxy-1H-benzo[d]imidazol-1-yl)pyridin-3-yl)propan-1-ol]
8 | 91 | 1 | 0.9 | Cc1cc(C#N)nn1-c1nc(-n2cnc3cc(Nc4ccc(C5COC5)nn4)ccc32)ccc1C(C)O (stereo not drawn) [Example 228, 1-[3-(1-Hydroxyethyl)-6-[5-[[6-(oxetan-3-yl)pyridazin-3-yl]amino]benzimidazol-1-yl]-2-pyridyl]-5-methyl-pyrazole-3-carbonitrile]
9 | 152 | 105 | 358 | COc1cc2ncn(-c3ccc(CO)c(-c4cccc(Cl)c4)n3)c2cc1OC [Example 1, (2-(3-chlorophenyl)-6-(5,6-dimethoxy-1H-benzo[d]imidazol-1-yl)pyridin-3-yl)methanol]
10 | 1050 | 12.9 | 2 | Cc1ccc(Nc2ccc3c(c2)ncn3-c2ccc(C(C)O)c(-n3nc(C)cc3C(F)F)n2)nn1 (stereo not drawn) [Example 231, 1-[2-[5-(difluoromethyl)-3-methyl-pyrazol-1-yl]-6-[5-[(6-methylpyridazin-3-yl)amino]benzimidazol-1-yl]-3-pyridyl]ethanol]
11 | 82 | 2.3 | 1.8 | COC(=N)c1cc(C)n(-c2nc(-n3cnc4cc(Nc5ccc(C)nn5)ccc43)ccc2[C@H](C)O)n1 [Example 276, 1-[3-[(1S)-1-hydroxyethyl]-6-[5-[(6-methylpyridazin-3-yl)amino]benzimidazol-1-yl]-2-pyridyl]-5-methyl-pyrazole-3-carboximidic acid methyl ester]
12 | 7 | 5.3 | 2.1 | Cc1ccc(Nc2ccc3c(c2)ncn3-c2ccc(C(C)O)c(-n3nc(C#N)cc3C)n2)nc1 (stereo not drawn) [Example 84, 1-[3-(1-hydroxyethyl)-6-[5-[(5-methyl-2-pyridyl)amino]benzimidazol-1-yl]-2-pyridyl]-5-methyl-pyrazole-3-carbonitrile]
13 | 1510 | 27.4 | 3 | Cc1ccc(Nc2ccc3c(c2)ncn3-c2ccc(C(C)O)c(N3CCC(C(F)F)C3)n2)nn1 (stereo not drawn) [Example 298, 1-[2-[3-(difluoromethyl)pyrrolidin-1-yl]-6-[5-[(6-methylpyridazin-3-yl)amino]benzimidazol-1-yl]-3-pyridyl]ethanol]
14 | 152 | 1.2 | 1 | Cc1ccc(Nc2ccc3c(c2)ncn3-c2ccc(C(C)O)c(-c3nn(C(F)F)cc3C)n2)nn1 (stereo not drawn) [Example 363, 1-[2-[1-(difluoromethyl)-4-methyl-pyrazol-3-yl]-6-[5-[(6-methylpyridazin-3-yl)amino]benzimidazol-1-yl]-3-pyridyl]ethanol]
15 | 28 | 10.1 | 15.7 | Cc1cc(C#N)nn1-c1nc(-n2cnc3cc(N4CC[C@@H](O)C4)ccc32)ccc1C(C)O (stereo partly drawn) [Example 77, 1-[3-(1-Hydroxyethyl)-6-[5-[(3R)-3-hydroxypyrrolidin-1-yl]benzimidazol-1-yl]-2-pyridyl]-5-methyl-pyrazole-3-carbonitrile; formic acid]
16 | 3330 | 288 | 29.5 | Cc1ccc(Nc2ccc3c(c2)ncn3-c2ccc(C(C)O)c(-c3cccc4[nH]nnc34)n2)nn1 (stereo not drawn) [Example 194, 1-[2-(1H-Benzotriazol-4-yl)-6-[5-[(6-methylpyridazin-3-yl)amino]benzimidazol-1-yl]-3-pyridyl]ethanol]
17 | 27700 | 589 | 167 | Cc1cc(-c2nc(-n3cnc4cc(Nc5ccc(C)nn5)ccc43)ccc2C(C)O)cnn1 (stereo not drawn) [Example 135, 1-[2-(6-Methylpyridazin-4-yl)-6-[5-[(6-methylpyridazin-3-yl)amino]benzimidazol-1-yl]-3-pyridyl]ethanol]
18 | 42 | 20.3 | 17.9 | Cc1ccc(-c2ccc3c(c2)ncn3-c2ccc(C(C)O)c(-n3nc(C#N)cc3C)n2)nn1 (stereo not drawn) [Example 340, 1-[3-(1-hydroxyethyl)-6-[5-(6-methylpyridazin-3-yl)benzimidazol-1-yl]-2-pyridyl]-5-methyl-pyrazole-3-carbonitrile]
19 | 577 | 10.5 | 0.8 | Cc1ccc(Nc2ccc3c(c2)ncn3-c2ccc(C(C)O)c(N3CC4CC3C(F)(F)C4)n2)nn1 (stereo not drawn) [Example 324, 1-[2-(6,6-difluoro-2-azabicyclo[2.2.1]heptan-2-yl)-6-[5-[(6-methylpyridazin-3-yl)amino]benzimidazol-1-yl]-3-pyridyl]ethanol]
20 | 1050 | 5.3 | 3.6 | Cc1ccc(Nc2cc3ncn(-c4ccc(C(C)O)c(-n5nc(Cl)cc5C)n4)c3cc2F)nn1 (stereo not drawn) [Example 355, 1-[2-(3-chloro-5-methyl-pyrazol-1-yl)-6-[6-fluoro-5-[(6-methylpyridazin-3-yl)amino]benzimidazol-1-yl]-3-pyridyl]ethanol]
